Experimental data from US20260132132A1, “3A,4,5,6-TETRAHYDRO-1 H-PYRAZOLO[3,4-C]PYRIDIN-7(7AH)-ONE DERIVATIVES AS FACTOR XIIA INHIBITORS” (KALVISTA PHARMACEUTICALS LIMITED, priority 2022, published 2026).

Target: T1, Human Factor XIIa (hFXIIa) (Homo sapiens, UniProt P00748)
T1 construct: purchased Enzyme Research Laboratories
T1 sequence (P00748 373-615 limits assumed): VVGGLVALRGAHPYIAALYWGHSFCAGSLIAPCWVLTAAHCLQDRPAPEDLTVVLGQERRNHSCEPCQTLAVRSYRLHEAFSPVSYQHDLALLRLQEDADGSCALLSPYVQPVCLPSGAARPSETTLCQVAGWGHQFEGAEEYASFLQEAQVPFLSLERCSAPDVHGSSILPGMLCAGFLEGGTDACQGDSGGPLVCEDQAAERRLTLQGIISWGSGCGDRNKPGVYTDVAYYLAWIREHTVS
T1 sequence (P00748 20-372 partner limits assumed): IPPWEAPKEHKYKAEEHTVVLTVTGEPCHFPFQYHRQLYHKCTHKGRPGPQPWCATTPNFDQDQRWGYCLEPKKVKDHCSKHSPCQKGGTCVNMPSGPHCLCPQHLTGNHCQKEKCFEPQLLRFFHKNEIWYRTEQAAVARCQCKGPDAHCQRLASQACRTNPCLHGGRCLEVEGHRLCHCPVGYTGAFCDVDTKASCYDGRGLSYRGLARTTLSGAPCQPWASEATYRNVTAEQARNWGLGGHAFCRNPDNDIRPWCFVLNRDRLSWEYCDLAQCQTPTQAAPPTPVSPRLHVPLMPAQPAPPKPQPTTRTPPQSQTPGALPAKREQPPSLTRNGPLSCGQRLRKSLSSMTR
Assay: Determination of Human Factor XIIa (hFXIIa) inhibition, fluorogenic substrate IC50 assay
Assay type: biochemical
Conditions: fluorogenic substrate H-DPro-Phe-Arg-AFC at Km, 25° C., read-out: Human FXIIa IC50
Experimental: Determination of Human Factor XIIa (hFXIIa) inhibition
The Km for the cleavage of the substrate by hFXIIa was determined by standard transformation of the Michaelis-Menten equation, with subsequent inhibition assays performed at substrate Km concentration.

SMILES | IC50 [nM]
CCNC(=O)c1nn(-c2cccc(Cl)c2)c2c1CCN(c1cccc(N3C(=O)C[C@H]4C[C@H]43)c1)C2=O (single isomer, unassigned) [Example 1407, 1-(3-Chlorophenyl)-N-ethyl-7-oxo-6-(3-((1R*,5R*)-3-oxo-2-azabicyclo[3.1.0]hexan-2-yl)phenyl)-4,5,6,7-tetrahydro-1H-pyrazolo[3,4-c]pyridine-3-carboxamide] | 10000 to 40000
Cc1nc2c(C#N)nn(-c3cccc(Cl)c3)c2c(=O)n1-c1ccc2c(c1)CN(C)CC2 [Example 3002, 1-(3-Chlorophenyl)-5-methyl-6-(2-methyl-1,2,3,4-tetrahydroisoquinolin-7-yl)-7-oxo-6,7-dihydro-1H-pyrazolo[4,3-d]pyrimidine-3-carbonitrile] | 100 to 300
Cc1cc(CNC(=O)c2nn(-c3cccc(Cl)c3)c3c2CCN(c2ccc4c(c2)C(=O)N(CCO)CC4)C3=O)n[nH]1 [Example 1255, 1-(3-chlorophenyl)-6-(2-(2-hydroxyethyl)-1-oxo-1,2,3,4-tetrahydroisoquinolin-7-yl)-N-((5-methyl-1H-pyrazol-3-yl)methyl)-7-oxo-4,5,6,7-tetrahydro-1H-pyrazolo[3,4-c]pyridine-3-carboxamide] | 100 to 300
COCc1nn(-c2cccc(Cl)c2)c2c1CCN(c1ccc3c(c1)CN(CCO)CC3)C2=O [Example 1069, 1-(3-chlorophenyl)-6-(2-(2-hydroxyethyl)-1,2,3,4-tetrahydroisoquinolin-7-yl)-3-(methoxymethyl)-1,4,5,6-tetrahydro-7H-pyrazolo[3,4-c]pyridin-7-one] | 300 to 1000
CN(C)C(=O)c1ccnc(N2CCc3c(C(=O)NCC4CC4)nn(-c4cccc(Cl)c4)c3C2=O)c1 [Example 1273, 1-(3-chlorophenyl)-N-(cyclopropylmethyl)-6-(4-(dimethylcarbamoyl)pyridin-2-yl)-7-oxo-4,5,6,7-tetrahydro-1H-pyrazolo[3,4-c]pyridine-3-carboxamide] | 3000 to 10000
COCc1nn(-c2cccc(Cl)c2)c2c1CCN(c1ccc3c(c1)CN(C)CC3)C2=O [Example 1066, 1-(3-Chlorophenyl)-3-(methoxymethyl)-6-(2-methyl-1,2,3,4-tetrahydroisoquinolin-7-yl)-1,4,5,6-tetrahydro-7H-pyrazolo[3,4-c]pyridin-7-one] | 1000 to 3000
CCNC(=O)c1nn(-c2cccc(Cl)c2)c2c1CCN(c1ccc3c(c1)C(=O)N(C)CC3)C2=O [Example 1297, 1-(3-chlorophenyl)-N-ethyl-6-(2-methyl-1-oxo-1,2,3,4-tetrahydroisoquinolin-7-yl)-7-oxo-4,5,6,7-tetrahydro-1H-pyrazolo[3,4-c]pyridine-3-carboxamide] | 300 to 1000
CC(=O)N(C)c1cccc(N2CCc3c(C(=O)NCC4CC4)nn(-c4cccc(Cl)c4)c3C2=O)c1 [Example 1269, 1-(3-chlorophenyl)-N-(cyclopropylmethyl)-6-(3-(N-methylacetamido)phenyl)-7-oxo-4,5,6,7-tetrahydro-1H-pyrazolo[3,4-c]pyridine-3-carboxamide] | 10000 to 40000
COc1cccnc1CNC(=O)c1nn(-c2cccc(Cl)c2)c2c1CCN(c1cc3c(cn1)CCN(CCO)C3)C2=O [Example 1221, 1-(3-chlorophenyl)-6-(6-(2-hydroxyethyl)-5,6,7,8-tetrahydro-2,6-naphthyridin-3-yl)-N-((3-methoxypyridin-2-yl)methyl)-7-oxo-4,5,6,7-tetrahydro-1H-pyrazolo[3,4-c]pyridine-3-carboxamide] | 10 to 100
CN1CCc2ccc(N3CCc4c(C(=O)NCC5(CO)CCC5)nn(-c5cccc(Cl)c5)c4C3=O)cc2C1 [Example 1049, 1-(3-chlorophenyl)-N-((1-(hydroxymethyl)cyclobutyl)methyl)-6-(2-methyl-1,2,3,4-tetrahydroisoquinolin-7-yl)-7-oxo-4,5,6,7-tetrahydro-1H-pyrazolo[3,4-c]pyridine-3-carboxamide] | 100 to 300
CCN1CCc2ccc(N3CCc4c(C(=O)NCc5cc(C)n(C)n5)nn(-c5cccc(Cl)c5)c4C3=O)cc2C1=O [Example 1219, 1-(3-chlorophenyl)-N-((1,5-dimethyl-1H-pyrazol-3-yl)methyl)-6-(2-ethyl-1-oxo-1,2,3,4-tetrahydroisoquinolin-7-yl)-7-oxo-4,5,6,7-tetrahydro-1H-pyrazolo[3,4-c]pyridine-3-carboxamide] | 10 to 100
COCCN(C)C(=O)c1cccc(N2CCc3c(C(=O)NCC4CC4)nn(-c4cccc(Cl)c4)c3C2=O)c1 [Example 1311, 1-(3-chlorophenyl)-N-(cyclopropylmethyl)-6-(3-((2-methoxyethyl)(methyl)carbamoyl)phenyl)-7-oxo-4,5,6,7-tetrahydro-1H-pyrazolo[3,4-c]pyridine-3-carboxamide] | 3000 to 10000

Continued, values first:

IC50 [nM] | SMILES
300 to 1000 | O=C(NCC1CC1)c1nn(-c2cccc(Cl)c2)c2c1CCN(c1ccc3c(c1)CN(Cc1ccn[nH]1)CC3)C2=O [Example 1104, 6-(2-((1H-pyrazol-5-yl)methyl)-1,2,3,4-tetrahydroisoquinolin-7-yl)-1-(3-chlorophenyl)-N-(cyclopropylmethyl)-7-oxo-4,5,6,7-tetrahydro-1H-pyrazolo[3,4-c]pyridine-3-carboxamide]
3000 to 10000 | O=C(NCC1CC1)c1nn(-c2cccc(Cl)c2)c2c1CCN(c1ccc3c(c1)CN(CCO)CC3(F)F)C2=O [Example 1300, 1-(3-chlorophenyl)-N-(cyclopropylmethyl)-6-(4,4-difluoro-2-(2-hydroxyethyl)-1,2,3,4-tetrahydroisoquinolin-7-yl)-7-oxo-4,5,6,7-tetrahydro-1H-pyrazolo[3,4-c]pyridine-3-carboxamide]
10000 to 40000 | CN1CCc2cc(N3CCc4c(C(=O)NCC5CC5)nn(-c5cccc(Cl)c5)c4C3=O)ccc2C1=O [Example 1190, 1-(3-chlorophenyl)-N-(cyclopropylmethyl)-6-(2-methyl-1-oxo-1,2,3,4-tetrahydroisoquinolin-6-yl)-7-oxo-4,5,6,7-tetrahydro-1H-pyrazolo[3,4-c]pyridine-3-carboxamide]
100 to 300 | CCN1CCc2ccc(N3CCc4c(C(=O)N[C@@H]5CCOC5)nn(-c5cccc(Cl)c5)c4C3=O)cc2C1 [Example 1091, (R)-1-(3-chlorophenyl)-6-(2-ethyl-1,2,3,4-tetrahydroisoquinolin-7-yl)-7-oxo-N-(tetrahydrofuran-3-yl)-4,5,6,7-tetrahydro-1H-pyrazolo[3,4-c]pyridine-3-carboxamide]
300 to 1000 | CC(C)(O)CN1CCc2ccc(N3CCc4c(C(=O)NCC5CC5)nn(-c5cccc(Cl)c5)c4C3=O)cc2C1 [Example 1096, 1-(3-chlorophenyl)-N-(cyclopropylmethyl)-6-(2-(2-hydroxy-2-methylpropyl)-1,2,3,4-tetrahydroisoquinolin-7-yl)-7-oxo-4,5,6,7-tetrahydro-1H-pyrazolo[3,4-c]pyridine-3-carboxamide]
100 to 300 | Cn1cc(CNC(=O)c2nn(-c3cccc(Cl)c3)c3c2CCN(c2ccc4c(c2)CN(CCO)CC4)C3=O)cn1 [Example 1133, 1-(3-chlorophenyl)-6-(2-(2-hydroxyethyl)-1,2,3,4-tetrahydroisoquinolin-7-yl)-N-((1-methyl-1H-pyrazol-4-yl)methyl)-7-oxo-4,5,6,7-tetrahydro-1H-pyrazolo[3,4-c]pyridine-3-carboxamide]
100 to 300 | CCOCCN1CCc2ccc(N3CCc4c(C(=O)NCC5CC5)nn(-c5cccc(Cl)c5)c4C3=O)cc2C1 [Example 1061, 1-(3-chlorophenyl)-N-(cyclopropylmethyl)-6-(2-(2-ethoxyethyl)-1,2,3,4-tetrahydroisoquinolin-7-yl)-7-oxo-4,5,6,7-tetrahydro-1H-pyrazolo[3,4-c]pyridine-3-carboxamide]
100 to 300 | CCC(C)N1CCc2ccc(N3CCc4c(C(=O)NCC5CC5)nn(-c5cccc(Cl)c5)c4C3=O)cc2C1 (centres unmarked) [Example 1059, 6-(2-(sec-butyl)-1,2,3,4-tetrahydroisoquinolin-7-yl)-1-(3-chlorophenyl)-N-(cyclopropylmethyl)-7-oxo-4,5,6,7-tetrahydro-1H-pyrazolo[3,4-c]pyridine-3-carboxamide]
100 to 300 | Cn1nccc1CNC(=O)c1nn(-c2cccc(Cl)c2)c2c1CCN(c1ccc3c(c1)CN(CCO)CC3)C2=O [Example 1088, 1-(3-chlorophenyl)-6-(2-(2-hydroxyethyl)-1,2,3,4-tetrahydroisoquinolin-7-yl)-N-((1-methyl-1H-pyrazol-5-yl)methyl)-7-oxo-4,5,6,7-tetrahydro-1H-pyrazolo[3,4-c]pyridine-3-carboxamide]
300 to 1000 | O=C(NCC1CC1)c1nn(-c2cccc(Cl)c2)c2c1CCN(c1ccc3c(c1)CN(C1CCOC1)CC3)C2=O (centres unmarked) [Example 1115, 1-(3-chlorophenyl)-N-(cyclopropylmethyl)-7-oxo-6-(2-(tetrahydrofuran-3-yl)-1,2,3,4-tetrahydroisoquinolin-7-yl)-4,5,6,7-tetrahydro-1H-pyrazolo[3,4-c]pyridine-3-carboxamide]
1000 to 3000 | O=C(NCC1CC1)c1nn(-c2cccc(Cl)c2)c2c1CCN(c1cccc(CN3CCCC3)c1)C2=O [Example 1072, 1-(3-Chlorophenyl)-N-(cyclopropylmethyl)-7-oxo-6-(3-(pyrrolidin-1-ylmethyl)phenyl)-4,5,6,7-tetrahydro-1H-pyrazolo[3,4-c]pyridine-3-carboxamide]
